A value given as a limit tells only on which side of the number the result lay.

For the compound `O=C1C(=O)N(CCCN2CCN(C(c3ccccc3)(c3ccccc3)c3ccccc3)CC2)c2ccccc21`, the melting point (in general, the temperature, or range, at which the solid turns liquid) fell in the range of 145 to 149 °C. In the case of `CC(=O)Oc1cc(C(C)C)ccc1C1(OC(C)=O)C(=O)c2cccc([N+](=O)[O-])c2C1=O` (centres undefined), the melting point is 94 to 98 °C. For the compound `C=CCNC(=O)N1CC(Oc2ccc(F)cc2)C1`, the melting point is 92 to 94 °C. As for `CC(C)(C)c1cc(CCCOc2ccccc2NC(=O)NC2CCN(Cc3ccccc3)CC2)cc(C(C)(C)C)c1O`, the melting point was in the range of 148 to 149 °C. Consider `CCOC(=O)c1cnc2ccc(SC)cc2c1O`, for which the melting point is greater than 260 °C. As for `CCCCn1nc(SC2CCC(CC(=O)O)CC2)c(C(=O)O)c1Cc1cc2c(cc1Cl)OCO2` (centres undefined), the melting point stood at 100 °C. In the case of `O=C1CCC2C=C(c3cccnc3)C(F)=CC2N1` (centres undefined), the melting point is 228 °C. With `COc1ccc(-c2cc(C(=O)NCc3ccccn3)c(=O)n(C)n2)cc1`, the melting point lay in the range of 122 to 123 °C. For the compound `CC(=O)Nc1ccc(S(=O)(=O)NCCN2[C@H](C)Cc3ccsc3[C@@H]2C)cc1` (relative stereo), the melting point lay within 142 to 144 °C. For `CS(=O)c1nnc2c(=O)c3ccccc3ccn12` (centres undefined), the melting point lay in the range of 208 to 211 °C.

`COc1cc(C)ccc1S(=O)(=O)N1CCC(=O)C(C(c2ccccc2)c2ccccc2)C1` (centres undefined) came in with a melting point of 130 to 131 °C. As to `COc1cccc(-c2nc3cc(C4=NNC(=O)SC4C)ccc3n2CC(C)C)c1` (centres undefined), the melting point lay within 100 to 105 °C. Then `CN(C)C1CCc2c(c3ccccc3n2CCC(=O)O)C1` (centres undefined), with 106 to 108 °C; and `CN(c1ccc(O)cc1)c1nc2cc(Cl)ccc2o1`, with 216 to 217 °C; and `C[C@H]1[C@@H](C(C)(C)O)CCN1c1ccc(C#N)cc1C(F)(F)F`, with 98 to 100 °C.

Compound `COc1ccc(CCn2cc(C(=O)NCCN(C)C)c3nc4c(C)cccc4cc3c2=O)cc1OC` returned a melting point of 113 to 114 °C. Then `O=C(c1cc(-c2ccccc2)ccn1)N(O)Cc1ccc(F)cc1`, with 135 to 140 °C; and `O=C1NC(=O)c2c1c(-c1ccccc1)cc1c2c2cc(O)ccc2n1CCCBr`, with 280 to 282 °C; and `CC(NC(=O)c1ccc(Cl)cc1)c1cccc2ccccc12` (centres undefined), with 117 to 118 °C. The compound `CCCN(CCC)CCC1=CC(=O)CCC1` registered a melting point of 95 to 97 °C.

On to `C[C@@H](Cn1ncc2ccc3oc(C(=O)OCc4ccccc4)cc3c21)NC(=O)OCc1ccccc1`, for which the melting point was 140 to 141 °C.

For `COc1ccc(CC(C)CC(=O)O)c(C(C)C)c1OC` (centres undefined), the melting point was in the range of 100 to 101 °C.

On to `CCCCc1cc2cc([N+](=O)[O-])ccc2[nH]1`, for which the melting point is 105 °C. In the case of `CCCCCC1=CCC(c2cc(F)c(C(=O)O)c(F)c2)C=C1` (centres undefined), the melting point stood at 65 °C.

`CCCCCCc1ccc(-c2ncc(C#N)c(Cl)n2)cc1`: the melting point was 80.3 to 80.5 °C. For the compound `CC(C)(C)OC(=O)N1CCN(C(=O)OC(C)(C)C)C(C(=O)O)C1` (centres undefined), the melting point fell in the range of 231 to 233 °C. For `COc1ccc(OC(=O)[C@H](C)NC(=O)OCc2ccccc2)cc1`, the melting point lay within 128 to 129 °C. `O=[PH]1Cc2ccc3ccccc3c2-c2c(ccc3ccccc23)C1` returned a melting point of 242 to 246 °C. For `CC(Oc1ccccc1)(c1ccc(O)cc1)c1ccc(O)cc1`, the melting point is 172 to 174 °C.

`CCN(CC)c1ccc(CNc2cc(C(=O)Nc3ccc(F)c(F)c3)ccc2OC)cc1`: the melting point lay in the range of 165 to 167 °C. With `CN(C)CCCn1c2c(c3cc(C(=O)O)ccc31)CCCCCC2`, the melting point is 149 to 150 °C. `CSCc1cn(C)c2cc(C(F)(F)F)ccc2c1=O` returned a melting point of 182 to 184 °C. To `O=C1CC2(c3ccccc3)CCCC2C(=O)N1Cc1ccccc1` (centres undefined) belongs 77 to 79 °C; to `CC(C)(C)OC(=O)N1C(=O)O[C@@H](c2ccc(F)cc2)[C@H]1Cc1ccc(C(F)(F)F)o1` (racemic), 134 to 135 °C. `c1ccc2c(c1)COC2=N[C@@H]1CCc2ccccc21` gave a melting point of 79 to 80 °C. To `Nc1nnc(C(F)(F)C(Cl)Cl)o1` belongs 171 °C; to `CC12CCC(=O)C=C1CCC(=Cc1ccccc1)C2=O` (centres undefined), 88 °C.

`COC(=O)C(C)Oc1ccc(Oc2ccc3cc(Cl)cc(Cl)c3n2)cc1` (centres undefined): the melting point came out at 70 °C. For the compound `Fc1ccc(C(c2ccccc2)(c2ccccc2)n2ccnc2)cc1`, the melting point was 146 °C. `COc1cc2c(cc1Cl)C(=O)CC(C)O2` (centres undefined) came in with a melting point of 96 to 100 °C.

`CN(C)C=C(C#N)C(=O)Nc1ccccc1Br` displayed a melting point of 140 to 141 °C.

Turning to `CC(=O)c1cc(CN2CCN(CCO)CC2)ccc1O`, the melting point lay within 72 to 75 °C. `CCN(CCCCCC(C)O)C(=O)CCC(=O)c1ccc(NS(C)(=O)=O)cc1` (centres undefined) registered a melting point of 78 to 80 °C. In the case of `Cn1ccnc1Sc1ccc(Cl)cc1[N+](=O)[O-]`, the melting point is 143 to 145 °C. With `COc1ccccc1-c1ccc2cnc(Nc3ccc4c(c3)N3CCC4CC3)nn12`, the melting point lay in the range of 89 to 95 °C. Compound `CCCc1oc(-c2ccccc2)nc1COc1ccc(C=O)cc1` yielded a melting point of 76 to 77 °C. To `CCn1c2cc(Cl)ccc2c2oc(C(=O)Cl)cc21` belongs 137 to 138 °C; to `COc1nnc2n1C=Cc1ccccc1C2C` (centres undefined), 101 to 102 °C; to `CCOC(=O)c1cc(CC)c2ccc(C(C)C)ccc1-2`, 48 to 49 °C.

As to `Cc1ncncc1C(=O)Nc1ccc(-n2nc(C(F)(F)F)c(Cl)c2C2CC2)c(F)c1`, the melting point is 183 to 185 °C. Compound `CCc1cnc(N)c2ccccc12` came in with a melting point of 84 to 85 °C.

In the case of `CCOC(=O)c1cn(C2CC2)c2c(OC)c(F)c(F)cc2c1=O`, the melting point lay within 178 to 180 °C. Compound `COC(=O)C(=Cc1cccc(O)c1)NC(C)=O` returned a melting point of 115 °C.

The compound `CC(C)n1c(=O)n(C)c(=O)c2c(S(=O)CCCO)n(C3Cc4ccccc4C3)cc21` (centres undefined) had a melting point of 164 to 165 °C. `CSC(=NS(=O)(=O)c1ccccc1)Nc1ccc(C#N)cc1` returned a melting point of 150 °C. The compound `Cc1sc(NS(=O)(=O)c2c(Cl)cc(Cl)cc2Cl)nc1CC(=O)N1CCOCC1` gave a melting point of 216 to 217 °C. With `Cc1cc(F)ccc1-c1ccc(S(=O)(=O)N2c3ccccc3CC2C(=O)O)cc1` (centres undefined), the melting point was in the range of 62 to 67 °C. In the case of `CCOC(=O)N1CCN(C2Cc3ccccc3Sc3cc(Cl)c(Cl)cc32)CC1` (centres undefined), the melting point is 184 to 186 °C. Turning to `O=S1(=O)N=C(NC2CCCC2)Nc2cc(Cl)sc21`, the melting point is 291 to 292 °C.

`CCOC(=O)c1[nH]ccc1N`: the melting point fell in the range of 197 to 200 °C. Then `CCC(Oc1ccc(C(C)(C)CC)cc1C(C)(C)CC)C(=O)Nc1ccc(Cl)c(NC(=O)CC(=O)C(C)(C)Sc2ccccc2)c1` (centres undefined), with 73 to 75 °C; and `COC(=O)CCCCOc1ccc2nc3[nH]c(=O)[nH]c3cc2c1`, with 281 to 282 °C. The compound `O=C(O)c1ccc(Cn2ncc3ccccc32)cc1` yielded a melting point of 178 to 179 °C. `COc1ccc(CCN2CCC(NC(=O)c3ccccc3)CC2)cc1`: the melting point stood at 178 °C. `O=C(O)C(Cl)=C(Cl)C(O)=NCCc1ccc([N+](=O)[O-])cc1` returned a melting point of 166 °C.

As for `O=C(Nc1ccc(-n2nc(C(F)(F)F)cc2C2CC2)cc1)c1ccncc1F`, the melting point lay in the range of 143 to 146 °C. To `COc1ccc(C(C)(O)c2cccc(OCc3nc(-c4ccccc4)oc3C)c2)c(OCCOC(C)=O)c1` (centres undefined) belongs 144 to 145 °C; to `O=C(O)CCC(=O)c1ccc(-c2ccc(Br)cc2F)cc1`, 145 to 147 °C. Then `Fc1ccc(/C=C/c2cc(F)cc(F)c2)cc1`, with 47 °C. Consider `O=C1c2cccc(NCCc3ccccc3)c2C(=O)c2cccc(NCCc3ccccc3)c21`, for which the melting point lay within 205 to 207 °C. To `CC(=O)c1cc(Cl)sc1SCc1ccccc1` belongs 86 to 88 °C; to `O=C1c2ccccc2-c2c1c1ccccc1c(=O)n2CCCCCCNS(=O)(=O)c1ccc(Br)cc1`, 188 to 190 °C. On to `CCCCCCOC(=O)CC[C@@H](NC(=O)[C@@H](NC(=O)OC(C)(C)C)C(C)C)C(N)=O`, for which the melting point was 94 to 95 °C. To `O=c1nc(Nc2ccc(Br)cc2)sc2ncccc12` belongs 274 to 275 °C. With `COC(=O)C1=C(C)Nc2nc(N3CCOCC3)nc(N3CCOCC3)c2C1c1cccc([N+](=O)[O-])c1` (centres undefined), the melting point amounted to 165 °C.

As to `COC(=O)C1=CCCN(C2CCc3ccc(OC)cc3C2)C1` (centres undefined), the melting point is 65 to 66 °C. On to `CC(c1cc(F)cc(F)c1)n1ncc(-c2ccc(S(N)(=O)=O)cc2)c(-c2ccc(F)cc2)c1=O` (centres undefined), for which the melting point lay in the range of 139 to 141 °C. In the case of `CCCc1nc2c(N)nc(C)c(C)c2n1CCCCCS(=O)(=O)c1ccc(F)cc1`, the melting point fell in the range of 130 to 132 °C. In turn, `CCc1nc2nc(C)nn2c(O)c1CCC(C)CC(C)(C)C` (centres undefined) gave a melting point of 183 to 185 °C. Consider `CCCc1nc2c(N)nc3cc(Oc4cccc(NCC)c4)ccc3c2n1CC(C)C`, for which the melting point was in the range of 168 to 174 °C. For the compound `COc1cc(OC)nc(O[C@H]2CCCC[C@H]2C(=O)O)n1` (relative stereo), the melting point lay in the range of 151 to 152 °C. Then `Cc1cc2c(s1)Oc1ccc(F)cc1NC2=O`, with 274 to 275 °C; and `NCC1Cc2cc(Cl)cc(-c3cccnc3)c2O1` (centres undefined), with greater than 250 °C; and `CCC(O)(c1cc(OC)cc(OCc2ccc3ccccc3c2)c1)c1nccs1` (centres undefined), with 105 °C.

`CCc1[nH]n(C2CCCC2)c2nc(-c3cccc(OCCN4CCOCC4)c3)nc(=O)c1-2` returned a melting point of 173 to 176 °C. `O=S1(=O)N=CN(CCF)c2ccc(Cl)cc21`: the melting point is 211 to 218 °C. Then `CCC1(CC)C(=O)c2cc(OC)c(C)c(C)c2C1=O`, with 80 to 81 °C; and `COc1ccc(-c2cc(CO)c(=O)n(Cc3ccc(F)c(F)c3)n2)cc1F`, with 154 to 156 °C; and `O=C(O)c1ccc2[nH]c3c(c2c1)CC(N1C(=O)c2ccccc2C1=O)CC3` (centres undefined), with 345 to 348 °C.

The record behind these values is a melting point compilation (Tetko et al.; mined from patent text by program, amines drawn as free bases though some values may be those of a salt).
